Patent US20160305970A1, “CELL LINES AND METHODS FOR MAKING AND USING THEM” (Chromocell Corporation, priority 2008, published 2016)
Blank lines part the entries; values can stand above or below the molecule they belong to.

Assays:
[1] = tested on: GABAA (α1β3γ2s, α2β3γ2s, α3β3γ2s and α5β3γ2s); experiment: In-cell readout assay using halide-sensitive meYFP, GABAA-meYFP-CHO cells; format: cell-based, human; settings: increasing concentrations of GABA ligand
Description: The response of GABAA (subunit combinations of α1β3γ2s (A1), α2β3γ2s (A2), α3β3γ2s (A3) and α5β3γ2s (A5)) expressing CHO cells of the invention to test compounds was evaluated using the following protocol for an in-cell readout assay.
Cells were plated 24 hours prior to assay at 10-25,000 cells per well in 384 well plates in growth media (Ham's F-12 media plus FBS and glutamine). […] The assay plates were then loaded on the FDSS (Hamamatsu Corporation). […] The plates were read for 90 seconds.

GABAA α5β3γ2s (α5) = biological target: T1, GABAA α5β3γ2s (α5) (Homo sapiens, UniProt P18507+P28472+P31644); format: cell-based; settings: CHO cell line α5β3γ2s, membrane potential assay
T1 construct: expressed in transfected cells
Description: Cells were plated 24 hours prior to assay at 10-25,000 cells per well in 384 well plates in growth media (Ham's F-12 media plus FBS and glutamine). […] Incubation was for 1 hour, followed by plate loading onto the high throughput fluorescent plate reader (Hamamastu FDSS). […] The plates were read for 90 seconds.

human CFTR = experiment: Fluorescence membrane potential assay, stable CFTR-expressing CHO cell line; format: cell-based; settings: stable CFTR-expressing cell line, 15,000 cells/well, 384-well plate
Description: Populations of cells were tested using functional criteria. Membrane potential dye kits (Molecular Devices, MDS) were used according to manufacturer's instructions. Cells were tested at varying densities in 384-well plates (i.e., 12.5×10^3 to 20×10^3 cells/per well) and responses were analyzed. Time between cell plating and assay read was tested. Dye concentration was also tested. Dose response curves and Z' scores were both calculated as part of the assessment of potential functionality. CHO cell lines stably expressing CFTR were maintained under standard cell culture conditions in Ham's F12 medium supplemented with 10% fetal bovine serum and glutamine. On the day before assay, the cells were harvested from stock plates and plated into black clear-bottom 384 well assay plates. The assay plates were maintained in a 37° C. cell culture incubator under 5% CO2 for 22-24 hours. […] For forskolin dose-response experiments, cells of the produced stable CFTR-expressing cell lines, plated at a density of 15,000 cells/well in a 384-well plate were challenged with increasing concentration of forskolin, a known CFTR agonist. The cellular response as a function of changes in cell fluorescence was monitored over time by a fluorescent plate reader (Hamamatsu FDSS). […]-1742 (2001)), indicating the potency of the clone.

[2] = biological target: human GC-C (guanylate cyclase 2C, GUCY2C) (human) (UniProt P25092); experiment: cell-based or functional assay
human GC-C (guanylate cyclase 2C, GUCY2C) (human), sequence (P25092 24-1073): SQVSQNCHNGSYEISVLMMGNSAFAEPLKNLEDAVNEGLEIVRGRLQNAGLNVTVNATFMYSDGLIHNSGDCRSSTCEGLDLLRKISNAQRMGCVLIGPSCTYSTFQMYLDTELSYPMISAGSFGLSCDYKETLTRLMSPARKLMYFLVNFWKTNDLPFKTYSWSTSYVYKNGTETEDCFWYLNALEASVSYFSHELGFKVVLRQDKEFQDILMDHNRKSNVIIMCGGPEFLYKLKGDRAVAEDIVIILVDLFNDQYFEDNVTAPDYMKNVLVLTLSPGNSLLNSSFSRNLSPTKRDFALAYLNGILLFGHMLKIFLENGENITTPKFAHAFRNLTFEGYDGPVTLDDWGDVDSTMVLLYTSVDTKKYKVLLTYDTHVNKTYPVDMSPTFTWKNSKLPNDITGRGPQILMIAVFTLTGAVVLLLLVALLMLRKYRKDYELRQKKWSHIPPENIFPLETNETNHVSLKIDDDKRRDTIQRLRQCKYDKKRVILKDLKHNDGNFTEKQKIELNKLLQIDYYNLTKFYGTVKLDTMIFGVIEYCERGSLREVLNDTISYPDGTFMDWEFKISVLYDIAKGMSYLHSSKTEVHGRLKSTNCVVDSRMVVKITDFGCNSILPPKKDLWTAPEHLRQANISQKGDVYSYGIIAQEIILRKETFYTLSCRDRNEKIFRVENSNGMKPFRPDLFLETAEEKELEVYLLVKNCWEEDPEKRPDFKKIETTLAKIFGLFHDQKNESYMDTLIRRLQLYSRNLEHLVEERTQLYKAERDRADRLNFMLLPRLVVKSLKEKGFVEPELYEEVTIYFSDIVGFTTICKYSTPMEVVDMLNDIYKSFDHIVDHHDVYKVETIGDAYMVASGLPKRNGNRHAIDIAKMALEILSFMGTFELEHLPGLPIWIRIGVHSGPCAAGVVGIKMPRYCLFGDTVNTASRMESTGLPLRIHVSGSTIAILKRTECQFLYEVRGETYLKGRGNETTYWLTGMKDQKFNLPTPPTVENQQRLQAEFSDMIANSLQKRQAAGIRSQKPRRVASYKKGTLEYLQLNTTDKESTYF

T1 sequence (P31644 32-462): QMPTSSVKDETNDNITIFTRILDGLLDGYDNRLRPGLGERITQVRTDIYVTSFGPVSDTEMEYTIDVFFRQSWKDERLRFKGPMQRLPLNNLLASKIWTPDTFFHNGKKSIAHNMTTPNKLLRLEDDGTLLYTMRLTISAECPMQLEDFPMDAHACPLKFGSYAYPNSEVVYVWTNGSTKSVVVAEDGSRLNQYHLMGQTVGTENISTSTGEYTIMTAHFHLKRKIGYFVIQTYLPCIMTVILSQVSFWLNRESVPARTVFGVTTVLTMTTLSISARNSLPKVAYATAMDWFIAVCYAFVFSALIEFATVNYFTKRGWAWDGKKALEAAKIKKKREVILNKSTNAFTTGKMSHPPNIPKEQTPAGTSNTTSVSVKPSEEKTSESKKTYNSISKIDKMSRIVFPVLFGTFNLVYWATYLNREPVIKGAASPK
T1 sequence (P28472 26-473): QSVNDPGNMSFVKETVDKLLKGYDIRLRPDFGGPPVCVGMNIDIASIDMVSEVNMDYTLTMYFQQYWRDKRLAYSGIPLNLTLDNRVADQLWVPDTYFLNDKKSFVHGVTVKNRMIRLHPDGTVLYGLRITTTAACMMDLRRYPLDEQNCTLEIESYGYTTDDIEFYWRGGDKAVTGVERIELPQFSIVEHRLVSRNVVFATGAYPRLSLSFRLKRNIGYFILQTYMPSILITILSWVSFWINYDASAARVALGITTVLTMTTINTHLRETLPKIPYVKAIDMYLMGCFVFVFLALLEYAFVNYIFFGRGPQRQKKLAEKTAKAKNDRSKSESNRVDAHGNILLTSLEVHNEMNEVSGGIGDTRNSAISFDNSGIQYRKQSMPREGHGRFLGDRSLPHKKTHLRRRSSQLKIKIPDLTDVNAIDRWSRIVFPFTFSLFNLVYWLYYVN
T1 sequence (P18507 40-467 isoform P18507-1 limits assumed): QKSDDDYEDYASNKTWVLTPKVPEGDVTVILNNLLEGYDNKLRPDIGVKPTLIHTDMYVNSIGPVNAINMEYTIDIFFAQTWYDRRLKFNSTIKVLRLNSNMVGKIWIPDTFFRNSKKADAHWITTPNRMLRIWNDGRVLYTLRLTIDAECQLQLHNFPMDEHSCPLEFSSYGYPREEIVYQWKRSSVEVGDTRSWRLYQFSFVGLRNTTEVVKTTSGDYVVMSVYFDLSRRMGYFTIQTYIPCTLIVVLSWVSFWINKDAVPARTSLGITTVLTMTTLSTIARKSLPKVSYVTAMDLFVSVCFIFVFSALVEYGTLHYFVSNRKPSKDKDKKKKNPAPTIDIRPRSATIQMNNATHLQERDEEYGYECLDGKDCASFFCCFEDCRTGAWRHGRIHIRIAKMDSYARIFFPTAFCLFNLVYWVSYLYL

Molecule: NCCCC(=O)O [GABA]
meYFP signal response [1]: increasing quench of meYFP signal

Molecule: COc1cc(/C=C(\C#N)C(=O)c2ccc(O)c(O)c2)cc(I)c1O [I-OMe Tyrphostin 538]
EC50 Values α5 (GABAA α5β3γ2s (α5)): α5 Not active

EC50 (human CFTR): 256 nM
Molecule: C=C[C@@]1(C)CC(=O)[C@]2(O)[C@@]3(C)[C@@H](O)CCC(C)(C)[C@@H]3[C@H](O)[C@H](OC(C)=O)[C@@]2(C)O1 [forskolin]

EC50 of the cellular response (absorbance as a function of changes in cGMP levels, Direct Cyclic GMP Enzyme Immunoassay Kit) to increasing guanylin [2]: 1.1 nM
level of cGMP [2]: 6 pmol/mL
Molecule: guanylin (peptide)
